Reference: patent publication US20220288156A1, “TREATMENT” (QUEEN MARY UNIVERSITY OF LONDON, priority 2019, published 2022)

System: cardiomyocytes
Assay: Cardiomyocyte size assessment after angiotensin II
Format: cell-based, mouse
Settings: 1 μM angiotensin II vs vehicle
Procedure: For cardiomyocyte hypertrophy assessment, 1 μM angiotensin II (Alfa Aesar, ThermoFisher Scientific) was added to cardiomyocyte growth media post serum starvation (i.e. 6 days post-culture), and this was refreshed the next day. Images of cardiomyocytes were captured using a bright field microscope at 40× magnification at 0, 24, and 48 hours post-angiotensin II treatment and analysed using ImageJ™ software.

## angiotensin II (DRVYIHPF; Angiotensin-2; UniProt P01019 25-32, looked up) [AngII, used to mimic the molecular stress of heart failure in cardiomyocytes]
  cardiomyocyte cell size: significant increase in cell size
